Eleven compounds from US20260098061A1, “EPHA2-BINDING PENDING PEPTIDE AND COMPOSITION COMPRISING SAME” (PeptiDream Inc., priority 2022, published 2026) can be followed below.

Each structure is given as a SMILES string. Numbered stars: 1 amine (or outer) side, 2 acyl side, 3 side chain; on linkers, the order of the positions; unused ones are H or OH. Bridge positions count the residues as written; N and C are the ends. Square brackets hold non-standard residues; d marks the D form. Side chains are listed from the residue outwards. Peptide text beside a SMILES is read from it. * marks the point of attachment. NH(1-deoxy-D-glucityl) = OC[C@@H](O)[C@@H](O)[C@H](O)[C@@H](O)CN*; Trp(1-Me,7-Cl) = Cn1cc(C[C@H](N)C(=O)O)c2cccc(Cl)c21; dPhe(3-CONH2) = NC(=O)c1cccc(C[C@@H](N)C(=O)O)c1; Piperazinyl(4-CH2COOH) = O=C(O)CN1CCN(*)CC1; Trp(1-Me) = Cn1cc(C[C@H](N)C(=O)O)c2ccccc21; NMe3Pal = CN[C@@H](Cc1cccnc1)C(=O)O; NMeF = CN[C@@H](Cc1ccccc1)C(=O)O; hArg = N=C(N)NCCCC[C@H](N)C(=O)O; Gly(cBu) = N[C@H](C(=O)O)C1CCC1; NMeE = CN[C@@H](CCC(=O)O)C(=O)O; Aad = N[C@@H](CCCC(=O)O)C(=O)O; NMeN = CN[C@@H](CC(N)=O)C(=O)O; CO = O=C([*:1])[*:2]

The target of this assay is T1, Recombinant Human EphA2 Fc Protein (Homo sapiens, UniProt P29317).
T1 construct: purchased Elabscience
Briefly: SPR interaction analysis (Biacore T200), kinetics of peptides against EphA2. The class given is binding. The note with it: Recombinant Human EphA2 Fc Protein captured by Human Antibody Capture kit; single-cycle kinetics; 25° C.; HBS-P+ buffer with 1% DMSO. The method, boiled down:
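KD derived from ka and kd, fitted on baseline-subtracted sensorgrams from single-cycle kinetics of five peptide dilutions. Running buffer: HBS-P+ (pH 7.4) plus 1% DMSO, 25° C, Biacore T200. Recombinant human EphA2-Fc held on an antibody capture surface.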

With `C[C@@H](O)[C@@H]1NC(=O)[C@H](Cc2cn(C)c3ccccc23)NC(=O)[C@H](CCCCNC(=O)N2CCN(CC(=O)O)CC2)NC(=O)[C@H](Cc2cn(C)c3c(Cl)cccc23)NC(=O)[C@H](CC(N)=O)N(C)C(=O)[C@H](CCCC(N)=O)NC(=O)[C@H](C2CCC2)NC(=O)[C@H](CC(N)=O)NC(=O)[C@H](Cc2cccnc2)N(C)C(=O)[C@@H](Cc2cccc(C(N)=O)c2)NC(=O)CSC[C@@H](C(N)=O)NC(=O)[C@H](CCCCNC(=N)N)NC1=O` [PDC_EphA2-00019430, df3CON-Me3Py-N-Cbg-Hgn-MeN-W1Me7Cl-KCOpipzaa-W1Me-T-Har-C-NH2] ({CH2CO}-[dPhe(3-CONH2)][NMe3Pal]N[Gly(cBu)][Aad](NH2)[NMeN][Trp(1-Me,7-Cl)]K([CO-Piperazinyl(4-CH2COOH)])[Trp(1-Me)]T[hArg]C-NH2; thioether N-12), the Kd is less than 1 nM.
Under `C[C@@H](O)[C@@H]1NC(=O)[C@H](Cc2cn(C)c3ccccc23)NC(=O)[C@H](CCC(=O)NC[C@H](O)[C@@H](O)[C@H](O)[C@H](O)CO)NC(=O)[C@H](Cc2cn(C)c3c(Cl)cccc23)NC(=O)[C@H](Cc2ccccc2)N(C)C(=O)[C@H](CCCC(N)=O)NC(=O)[C@H](C2CCC2)NC(=O)[C@H](CC(N)=O)NC(=O)[C@H](Cc2ccccc2)N(C)C(=O)[C@@H](Cc2cccc(C(N)=O)c2)NC(=O)CSC[C@@H](C(N)=O)NC(=O)[C@H](CCCC(N)=O)NC1=O` [PDC_EphA2-00019431, df3CON-MeF-N-Cbg-Hgn-MeF-W1Me7Cl-Qglucamine-W1Me-T-Hgn-C-NH2] ({CH2CO}-[dPhe(3-CONH2)][NMeF]N[Gly(cBu)][Aad](NH2)[NMeF][Trp(1-Me,7-Cl)]E(NH(1-deoxy-D-glucityl))[Trp(1-Me)]T[Aad](NH2)C-NH2; thioether N-12) stands less than 1 nM; under `C[C@@H](O)[C@@H]1NC(=O)[C@H](Cc2cn(C)c3ccccc23)NC(=O)[C@H](CCCCNC(=O)N2CCN(CC(=O)O)CC2)NC(=O)[C@H](Cc2cn(C)c3c(Cl)cccc23)NC(=O)[C@H](Cc2ccccc2)N(C)C(=O)[C@H](CCCC(N)=O)NC(=O)[C@H](C2CCC2)NC(=O)[C@H](CC(N)=O)NC(=O)[C@H](Cc2ccccc2)N(C)C(=O)[C@@H](Cc2cccc(C(N)=O)c2)NC(=O)CSC[C@@H](C(N)=O)NC(=O)[C@H](CCCC(N)=O)NC1=O` [PDC_EphA2-00019432, df3CON-MeF-N-Cbg-Hgn-MeF-W1Me7Cl-KCOpipzaa-W1Me-T-Hgn-C-NH2] ({CH2CO}-[dPhe(3-CONH2)][NMeF]N[Gly(cBu)][Aad](NH2)[NMeF][Trp(1-Me,7-Cl)]K([CO-Piperazinyl(4-CH2COOH)])[Trp(1-Me)]T[Aad](NH2)C-NH2; thioether N-12), less than 1 nM; under `C[C@@H](O)[C@@H]1NC(=O)[C@H](Cc2cn(C)c3ccccc23)NC(=O)[C@H](CCC(=O)NC[C@H](O)[C@@H](O)[C@H](O)[C@H](O)CO)NC(=O)[C@H](Cc2cn(C)c3c(Cl)cccc23)NC(=O)[C@H](Cc2ccccc2)N(C)C(=O)[C@H](CCCC(N)=O)NC(=O)[C@H](C2CCC2)NC(=O)[C@H](CC(N)=O)NC(=O)[C@H](Cc2cccnc2)N(C)C(=O)[C@@H](Cc2cccc(C(N)=O)c2)NC(=O)CSC[C@@H](C(N)=O)NC(=O)[C@H](CCCC(N)=O)NC1=O` [PDC_EphA2-00019433, df3CON-Me3Py-N-Cbg-Hgn-MeF-W1Me7Cl-Qglucamine-W1Me-T-Hgn-C-NH2] ({CH2CO}-[dPhe(3-CONH2)][NMe3Pal]N[Gly(cBu)][Aad](NH2)[NMeF][Trp(1-Me,7-Cl)]E(NH(1-deoxy-D-glucityl))[Trp(1-Me)]T[Aad](NH2)C-NH2; thioether N-12), less than 1 nM.
The value for `C[C@@H](O)[C@@H]1NC(=O)[C@H](Cc2cn(C)c3ccccc23)NC(=O)[C@H](CCCCNC(=O)N2CCN(CC(=O)O)CC2)NC(=O)[C@H](Cc2cn(C)c3c(Cl)cccc23)NC(=O)[C@H](Cc2ccccc2)N(C)C(=O)[C@H](CCCC(N)=O)NC(=O)[C@H](C2CCC2)NC(=O)[C@H](CC(N)=O)NC(=O)[C@H](Cc2cccnc2)N(C)C(=O)[C@@H](Cc2cccc(C(N)=O)c2)NC(=O)CSC[C@@H](C(N)=O)NC(=O)[C@H](CCCC(N)=O)NC1=O` [PDC_EphA2-00019434, df3CON-Me3Py-N-Cbg-Hgn-MeF-W1Me7Cl-KCOpipzaa-W1Me-T-Hgn-C-NH2] ({CH2CO}-[dPhe(3-CONH2)][NMe3Pal]N[Gly(cBu)][Aad](NH2)[NMeF][Trp(1-Me,7-Cl)]K([CO-Piperazinyl(4-CH2COOH)])[Trp(1-Me)]T[Aad](NH2)C-NH2; thioether N-12) was less than 1 nM; that for `C[C@@H](O)[C@@H]1NC(=O)[C@H](Cc2cn(C)c3ccccc23)NC(=O)[C@H](CCC(=O)NC[C@H](O)[C@@H](O)[C@H](O)[C@H](O)CO)NC(=O)[C@H](Cc2cn(C)c3c(Cl)cccc23)NC(=O)[C@H](Cc2cccnc2)N(C)C(=O)[C@H](CCCC(N)=O)NC(=O)[C@H](C2CCC2)NC(=O)[C@H](CC(N)=O)NC(=O)[C@H](Cc2ccccc2)N(C)C(=O)[C@@H](Cc2cccc(C(N)=O)c2)NC(=O)CSC[C@@H](C(N)=O)NC(=O)[C@H](CCCC(N)=O)NC1=O` [PDC_EphA2-00019435, df3CON-MeF-N-Cbg-Hgn-Me3Py-W1Me7Cl-Qglucamine-W1Me-T-Hgn-C-NH2] ({CH2CO}-[dPhe(3-CONH2)][NMeF]N[Gly(cBu)][Aad](NH2)[NMe3Pal][Trp(1-Me,7-Cl)]E(NH(1-deoxy-D-glucityl))[Trp(1-Me)]T[Aad](NH2)C-NH2; thioether N-12) was less than 1 nM; that for `C[C@@H](O)[C@@H]1NC(=O)[C@H](Cc2cn(C)c3ccccc23)NC(=O)[C@H](CCCCNC(=O)N2CCN(CC(=O)O)CC2)NC(=O)[C@H](Cc2cn(C)c3c(Cl)cccc23)NC(=O)[C@H](Cc2cccnc2)N(C)C(=O)[C@H](CCCC(N)=O)NC(=O)[C@H](C2CCC2)NC(=O)[C@H](CC(N)=O)NC(=O)[C@H](Cc2ccccc2)N(C)C(=O)[C@@H](Cc2cccc(C(N)=O)c2)NC(=O)CSC[C@@H](C(N)=O)NC(=O)[C@H](CCCC(N)=O)NC1=O` [PDC_EphA2-00019436, df3CON-MeF-N-Cbg-Hgn-Me3Py-W1Me7Cl-KCOpipzaa-W1Me-T-Hgn-C-NH2] ({CH2CO}-[dPhe(3-CONH2)][NMeF]N[Gly(cBu)][Aad](NH2)[NMe3Pal][Trp(1-Me,7-Cl)]K([CO-Piperazinyl(4-CH2COOH)])[Trp(1-Me)]T[Aad](NH2)C-NH2; thioether N-12) was less than 1 nM.
The value for `C[C@@H](O)[C@@H]1NC(=O)[C@H](Cc2cn(C)c3ccccc23)NC(=O)[C@H](CCC(=O)NC[C@H](O)[C@@H](O)[C@H](O)[C@H](O)CO)NC(=O)[C@H](Cc2cn(C)c3c(Cl)cccc23)NC(=O)[C@H](CCC(=O)O)N(C)C(=O)[C@H](CCCC(N)=O)NC(=O)[C@H](C2CCC2)NC(=O)[C@H](CC(N)=O)NC(=O)[C@H](Cc2cccnc2)N(C)C(=O)[C@@H](Cc2cccc(C(N)=O)c2)NC(=O)CSC[C@@H](C(N)=O)NC(=O)[C@H](CCCC(N)=O)NC1=O` [PDC_EphA2-00019439, df3CON-Me3Py-N-Cbg-Hgn-MeE-W1Me7Cl-Qglucamine-W1Me-T-Hgn-C-NH2] ({CH2CO}-[dPhe(3-CONH2)][NMe3Pal]N[Gly(cBu)][Aad](NH2)[NMeE][Trp(1-Me,7-Cl)]E(NH(1-deoxy-D-glucityl))[Trp(1-Me)]T[Aad](NH2)C-NH2; thioether N-12) was less than 1 nM.
Consider `C[C@@H](O)[C@@H]1NC(=O)[C@H](Cc2cn(C)c3ccccc23)NC(=O)[C@H](CCCCNC(=O)N2CCN(CC(=O)O)CC2)NC(=O)[C@H](Cc2cn(C)c3c(Cl)cccc23)NC(=O)[C@H](CCC(=O)O)N(C)C(=O)[C@H](CCCC(N)=O)NC(=O)[C@H](C2CCC2)NC(=O)[C@H](CC(N)=O)NC(=O)[C@H](Cc2cccnc2)N(C)C(=O)[C@@H](Cc2cccc(C(N)=O)c2)NC(=O)CSC[C@@H](C(N)=O)NC(=O)[C@H](CCCC(N)=O)NC1=O` [PDC_EphA2-00019440, df3CON-Me3Py-N-Cbg-Hgn-MeE-W1Me7Cl-KCOpipzaa-W1Me-T-Hgn-C-NH2] ({CH2CO}-[dPhe(3-CONH2)][NMe3Pal]N[Gly(cBu)][Aad](NH2)[NMeE][Trp(1-Me,7-Cl)]K([CO-Piperazinyl(4-CH2COOH)])[Trp(1-Me)]T[Aad](NH2)C-NH2; thioether N-12), for which the Kd was less than 1 nM.
The value for `C[C@@H](O)[C@@H]1NC(=O)[C@H](Cc2cn(C)c3ccccc23)NC(=O)[C@H](CCCCNC(=O)N2CCN(CC(=O)O)CC2)NC(=O)[C@H](Cc2cn(C)c3c(Cl)cccc23)NC(=O)[C@H](Cc2ccccc2)N(C)C(=O)[C@H](CCCCNC(=O)N2CCN(CC(=O)O)CC2)NC(=O)[C@H](C2CCC2)NC(=O)[C@H](CC(N)=O)NC(=O)[C@H](Cc2cccnc2)N(C)C(=O)[C@@H](Cc2cccc(C(N)=O)c2)NC(=O)CSC[C@@H](C(N)=O)NC(=O)[C@H](CCCC(N)=O)NC1=O` [PDC_EphA2-00019441, df3CON-Me3Py-A-Cbg-KCOpipzaa-MeF-W1Me7Cl-KCOpipzaa-W1Me-T-Hgn-C-NH2] ({CH2CO}-[dPhe(3-CONH2)][NMe3Pal]N[Gly(cBu)]K([CO-Piperazinyl(4-CH2COOH)])[NMeF][Trp(1-Me,7-Cl)]K([CO-Piperazinyl(4-CH2COOH)])[Trp(1-Me)]T[Aad](NH2)C-NH2; thioether N-12) was less than 1 nM; that for `C[C@@H](O)[C@@H]1NC(=O)[C@H](Cc2cn(C)c3ccccc23)NC(=O)[C@H](CCC(=O)NC[C@H](O)[C@@H](O)[C@H](O)[C@H](O)CO)NC(=O)[C@H](Cc2cn(C)c3c(Cl)cccc23)NC(=O)[C@H](Cc2ccccc2)N(C)C(=O)[C@H](CCCCNC(=O)N2CCN(CC(=O)O)CC2)NC(=O)[C@H](C2CCC2)NC(=O)[C@H](CC(N)=O)NC(=O)[C@H](Cc2cccnc2)N(C)C(=O)[C@@H](Cc2cccc(C(N)=O)c2)NC(=O)CSC[C@@H](C(N)=O)NC(=O)[C@H](CCCC(N)=O)NC1=O` [PDC_EphA2-00019442, df3CON-Me3Py-N-Cbg-KCOpipzaa-MeF-W1Me7Cl-Qglucamine-W1Me-T-Hgn-C-NH2] ({CH2CO}-[dPhe(3-CONH2)][NMe3Pal]N[Gly(cBu)]K([CO-Piperazinyl(4-CH2COOH)])[NMeF][Trp(1-Me,7-Cl)]E(NH(1-deoxy-D-glucityl))[Trp(1-Me)]T[Aad](NH2)C-NH2; thioether N-12) was less than 1 nM.

The Kd is the free concentration of one partner at which half of the binding sites on the other are occupied at equilibrium, for simple one-to-one binding.
